Reference: patent publication US20260109732A1, “LIPID AMINES” (ModernaTX, Inc., priority 2021, published 2026)
Structures can show the parent of a compound that is named as a salt.

What was measured:
[1] = Diameter and PDI from DLS measurements of mRNA nanoparticles with lipid amines; assay type: physicochemical
Summary of the method: (§1)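 DLS gave size and PDI, and Ribogreen gave encapsulation, for luciferase- or CFTR-mRNA nanoparticles (N:P 4.93). Particles came from IL1/DSPC/cholesterol/PEG-DMG-2K mixed at pH 4, mRNA-loaded, neutralized with TRIS pH 8.12, and then treated with lipid amine SA50 in pH 7.5 buffer.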

[2] = Encapsulation of mRNA nanoparticles with lipid amines using Ribogreen assay; assay type: physicochemical
Summary of the method: as §1

HeLa cells [3] = experiment: Luciferase Protein Expression Assay in HeLa Cells; assay type: cell-based, Human; details: LNPs encapsulating Luciferase mRNA, 25 ng per well, N=4 wells; 5 h serum-free then 24 h; ONE-Glo
Summary of the method: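 Luminescence output, average RLU across N=4 wells, was measured with ONE-Glo after cell lysis. Before that, HeLa cells were exposed to 25 ng/well luciferase-mRNA nanoparticles (PBS control) for 5 h serum-free, then cultured overnight (24 h) in complete MEM.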

HeLa cells [4] = experiment: CFTR Protein Expression Assay in HeLa Cells; assay type: cell-based, Human; details: LNPs encapsulating CFTR mRNA, N=4 wells; 5 h serum-free then 24 h; immunofluorescence vs PBS control
Summary of the method: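 Readout is fold-change in per-cell CFTR immunofluorescence intensity (488 nm, confocal imaging) relative to PBS-treated cells, from 4 replicate wells. LNPs encapsulating CFTR mRNA were applied serum-free for 5 h, followed by 24 h in complete medium before PFA fixation.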

[5] = CFTR mRNA nanoparticle with lipid amine
[6] = Luciferase mRNA nanoparticle modified with lipid amine

Structure (SMILES): CC[C@H](CC[C@@H](C)[C@H]1CC[C@H]2[C@@H]3CC=C4C[C@@H](OC(=O)CCCC(=O)N(CCCCCCCC(C)N)CCC(C)N)CC[C@]4(C)[C@H]3CC[C@]12C)C(C)C (stereo partly drawn) [SA154, (3S,8S,9S,10R,13R,14S,17R)-17-((2R,5R)-5-ethyl-6-methylheptan-2-yl)-10,13-dimethyl-2,3,4,7,8,9,10,11,12,13,14,15,16,17-tetradecahydro-1H-cyclopenta[a]phenanthren-3-yl 5-((3-aminobutyl)(8-aminononyl)amino)-5-oxopentanoate dihydrochloride]
- Diameter (nm) [1, 5]: 72.8 nm
- PDI [1, 5]: 0.13
- Diameter (nm) [1, 6]: 73 nm
- PDI [1, 6]: 0.18
- % Encapsulation (Ribogreen) [2, 5]: 99.1%
- % Encapsulation (Ribogreen) [2, 6]: 99.6%
- Average Relative Light Units ± Standard Deviation (HeLa cells [3]): 28128.6 ± 4655.3 Relative Light Units
- Average fold-change in CFTR signal intensity per cell compared to buffer control ± standard deviation (HeLa cells [4]): 16.7 ± 0.8 fold-change

Structure (SMILES): CC[C@H](CC[C@@H](C)[C@H]1CC[C@H]2[C@@H]3CC=C4C[C@@H](OC(=O)CCCC(=O)N(CCCCCCCC(C)(C)N)CCC(C)(C)N)CC[C@]4(C)[C@H]3CC[C@]12C)C(C)C [SA155, (3S,8S,9S,10R,13R,14S,17R)-17-((2R,5R)-5-ethyl-6-methylheptan-2-yl)-10,13-dimethyl-2,3,4,7,8,9,10,11,12,13,14,15,16,17-tetradecahydro-1H-cyclopenta[a]phenanthren-3-yl 5-((3-amino-3-methylbutyl)(8-amino-8-methylnonyl)amino)-5-oxopentanoate dihydrochloride]
- Diameter (nm) [1, 5]: 71.1 nm
- PDI [1, 5]: 0.13
- Diameter (nm) [1, 6]: 73 nm
- PDI [1, 6]: 0.11
- % Encapsulation (Ribogreen) [2, 5]: 99.4%
- % Encapsulation (Ribogreen) [2, 6]: 98.9%
- Average Relative Light Units ± Standard Deviation (HeLa cells [3]): 31922.9 ± 8053.8 Relative Light Units
- Average fold-change in CFTR signal intensity per cell compared to buffer control ± standard deviation (HeLa cells [4]): 12.2 ± 1.0 fold-change

Structure (SMILES): CC[C@H](CC[C@@H](C)[C@H]1CC[C@H]2[C@@H]3CC=C4C[C@@H](OC(=O)CCCC(=O)N(CCC(C)N)CCC(C)N)CC[C@]4(C)[C@H]3CC[C@]12C)C(C)C (stereo partly drawn) [SA156, (3S,8S,9S,10R,13R,14S,17R)-17-((2R,5R)-5-ethyl-6-methylheptan-2-yl)-10,13-dimethyl-2,3,4,7,8,9,10,11,12,13,14,15,16,17-tetradecahydro-1H-cyclopenta[a]phenanthren-3-yl 5-(bis(3-aminobutyl)amino)-5-oxopentanoate dihydrochloride]
- Diameter (nm) [1, 5]: 76.5 nm
- PDI [1, 5]: 0.18
- Diameter (nm) [1, 6]: 74 nm
- PDI [1, 6]: 0.15
- % Encapsulation (Ribogreen) [2, 5]: 99.6%
- % Encapsulation (Ribogreen) [2, 6]: 99.5%
- Average Relative Light Units ± Standard Deviation (HeLa cells [3]): 37662.9 ± 8258.6 Relative Light Units
- Average fold-change in CFTR signal intensity per cell compared to buffer control ± standard deviation (HeLa cells [4]): 14.6 ± 0.8 fold-change
